Patent US20100009405A1, “Biosynthetic process for the preparation of gallidermin” (priority 2005, published 2010)
Values after ≈ are worked out from the molar mass of the structure shown. Ends that are not written are not given here.

Experiments:
S. gallinarum (pGV5) = test: Minimum inhibitory concentration of kanamycin used for selection; format: cell-based, Staphylococcus gallinarum; settings: B-medium
Method: FIG. 4 is a schematic representation of the strategy employed for the selection of gdmP knock-out strains. Cm: chloramphenicol; Kan: kanamycin; MIC: minimum inhibitory concentration; R: resistance; S: sensitivity;
A first S. gallinarum (pGV5) culture was started inoculating 10 ml kanamycin-supplemented ([…]) B-medium with a single colony of a transformed cell. Culture was incubated shaking with 225 rpm at 30° C., a temperature that allowed pGV5 to replicate as free plasmid (permissive temperature), until late stationary phase (16h). With this culture, new cultures were inoculated (1:100) and incubated shaking with 225 rpm at 30° C. into the late stationary phase (16 h). […] This step was repeated once, before diluting the cultures 1:100 into 100 ml B-medium containing no antibiotic. Growth at 40° C. was extended for another 24 hours.

sensitive test strain = test: Test-disc bioassay of antibacterial activity of gallidermin preparations; format: cell-based; settings: dilutions of stock solutions on test discs, same concentrations
Method: FIGS. 12A and B show the result of the proteolytic (trypsin) conversion of pregallidermins into gallidermin. […] Dilutions for a stock solution of either compound were applied onto test discs and incubated in the presence of a sensitive test strain. […] Pre-gallidermins (1.09 g/l) were incubated with trypsin (0.2 g/l) 1 h, RT, pH 6.5,
Of all proteases examined, only trypsin appeared to be suitable for a commercial and industrialised process. […] We have disclosed the feasibility to selectively cleave pre-gallidermins into mature gallidermin using serine-type proteases and trypsin in particular. While we have employed soluble enzyme preparations, alternatives, such as immobilized enzyme preparations, could be used instead. This would facilitate the repetitive use of such enzymes and avoid possible contaminations of the final product by trypsin, even though, trypsin is generally regarded as safe (GRAS).

Compound | MIC value (S. gallinarum (pGV5)) [µg/mL] | bioactivity compared with gallidermin isolated from the wild-type strain (sensitive test strain)
NC[C@H]1O[C@H](O[C@H]2[C@H](O)[C@@H](O[C@H]3O[C@H](CO)[C@@H](O)[C@H](N)[C@H]3O)[C@H](N)C[C@@H]2N)[C@H](O)[C@@H](O)[C@@H]1O [kanamycin] | 7500 (≈ 15.5 mM) | 
gallidermin [in-situ activated gallidermin] (IASKFLCTPGCAKTGSFNSYCC; also: lantibiotic with dehydroamino residues and thioether bridges, places not given here, in-situ activated form; UniProt P21838 31-52, looked up) |  | same bioactivity
